{"source": "patent US9498506B2", "about": "“Pharmaceutical composition for preventing or treating thyroid diseases, comprising extract from Lonicera caerulea L. var. edulis fruits as active ingredient” (H&K BIOSCIENCE CO., LTD., priority 2013, dated 2016)", "type_in_all_cases": "in vivo", "key": {"[1]": {"tested_on": "LT4-induced hyperthyroidism rat", "experiment": "Change in the weight of thyroid, LT4-induced hyperthyroidism animal model", "conditions": "LT4-induced hyperthyroidism rats; 10 mg/kg intraperitoneally", "experimental": "(§1) Total number of 150 male SPF. VAF Outbred-Rats, Crl:CD [Sprague-Dawley, SD] rats (6 weeks old, OrientBio, Seungnam, Korea) were prepared and refined for 8 days in a laboratory environment. After that, rats with consistent weight (average: 233.70 g±10.47 g, 217 g to 252 g) were selected, and 8 rats per group (total of 56 rats) were used for the experiment. In the present invention, all the experimental animals were treated according to animal ethics of the animal experimentation ethics committee of Daegu Haany University. The experiment was conducted after pre-approval.\nBased on conventional methods known in the art (Clin Exp Pharmacol Physiol. 2007 November; 34(11):1217-9, etc.), a hyperthyroidism animal model was prepared by administering LT4 (levothyroxine). […]\nOn the final day of sacrifice, left thyroids of all the experimental animals were extracted and isolated and next, the weight was measured and designated as the absolute weight. In order to minimize the secondary change accompanied with the change in weight, relative thyroid gland weight (Absolute […] weight/body weight at sacrifice ×100), which was the ratio of the absolute weight of the thyroid based on body weight, was calculated."}, "[2]": {"tested_on": "LT4-induced hyperthyroidism rat", "experiment": "Histopathological observation of thyroid, LT4-induced hyperthyroidism animal model", "conditions": "LT4-induced hyperthyroidism rats; 10 mg/kg intraperitoneally", "experimental": "as §1\n(§2) Based on conventional methods known in the art (Clin Exp Pharmacol Physiol. 2007 November; 34(11):1217-9, etc.), a hyperthyroidism animal model was prepared by administering LT4 (levothyroxine). Specifically, hyperthyroidism was induced by dissolving 3 mg of LT4 into 10 ml of saline solution and subcutaneously injecting the capacity of 1 ml/kg into dorsal neck of the animal model once everyday for a period of 27 days. On the other hand, in the intact control group, the same amount of saline solution instead of LT4 was administered for the same period in the same manner as described above (FIG. 1).\n(§3) Targeting the hyperthyroidism animal prepared as above, 500, 250, and 125 mg/kg of the extract from Lonicera caerulea L. car. Edulis fruits (BH) prepared in Example 1-1 were dissolved in sterilized distilled water, respectively, and the capacity of 5 ml/kg was orally administered forcibly once a day from Day 12 to Day 15 since the treatment.\nOn the other hand, Lonicerae Flos aqueous hot water extract (LF), an experimental group, was also dissolved in sterilized distilled water, and the capacity of 250 mg/kg was orally administered for the same period in the same manner as described above. 10 mg/kg of PTU was dissolved in saline solution, and the capacity of 1 ml/kg was intraperitoneally administered for the same period in the same manner as described above (Table 1, FIG. 1). […]"}, "[3]": {"tested_on": "LT4-induced hyperthyroidism rat", "experiment": "Thyroid hormone content in blood (radioimmunoassay), LT4-induced hyperthyroidism animal model", "conditions": "LT4-induced hyperthyroidism rats; 10 mg/kg intraperitoneally", "experimental": "as §1, §2, §3\nOn the other hand, Lonicerae Flos aqueous hot water extract (LF), an experimental group, was also dissolved in sterilized distilled water, and the capacity of 250 mg/kg was orally administered for the same period in the same manner as described above. […]\nThe TSH, T3, and T4 contents in blood were measured in the units including ng/ml or μg/ml by Gamma count Cobra II (Packard Co., IL, USA) utilizing Coat A count Total TSH, T3 or T4 kit (DPC, CA, USA), respectively, based on Radioimmunoassay method (Toxicol Sci 69(1): 79-91, 2002)."}, "[4]": {"tested_on": "LT4-induced hyperthyroidism rat", "experiment": "Change in weight, LT4-induced hyperthyroidism animal model", "conditions": "LT4-induced hyperthyroidism rats", "experimental": "as §1, §2, §3\nOn the other hand, Lonicerae Flos aqueous hot water extract (LF), an experimental group, was also dissolved in sterilized distilled water, and the capacity of 250 mg/kg was orally administered for the same period in the same manner as described above. 10 mg/kg of PTU was dissolved in saline solution, and the capacity of 1 ml/kg was intraperitoneally administered for the same period in the same manner as described above (Table 1, FIG. 1).\nNext, the effects on treating hyperthyroidism was confirmed by observing the weight change, thyroid weight change, content change in blood thyroid hormone (TSH, T3, and T4), and histopathological change in the thyroid (the total thickness of thyroid in which the cells have been cut, average diameter of thyroid follicle, and thickness of thyroid epithelium) of the rats for each group."}, "[5]": {"tested_on": "PTU-induced hypothyroidism rat", "experiment": "Change in the weight of reproductive organs, PTU-induced hypothyroidism animal model", "conditions": "PTU-induced hypothyroidism rats; 0.5 mg/kg intraperitoneally", "experimental": "(§4) Experimental animals are the same as described in Experimental Example 3.\n(§5) Based on conventional methods known in the art (Neuro Endocrinol Lett. 1999; 20:311-14; Toxicol Sci. 2002; 69:79-91; Korean J Orient Physiol Pathol. 2010; 24:630-7), a hypothyroidism animal model was prepared by administering Propylthiouracil (PTU). Specifically, hypothyroidism was induced by dissolving 100 mg of PTU into 10 ml of saline solution and subcutaneously injecting the capacity of 1 ml/kg into dorsal neck of the animal model once everyday for a period of 28 days. On the other hand, in the intact control group, the same amount of saline solution instead of PTU was administered for the same period in the same manner as described above (FIG. 5).\n(§6) Targeting the hypothyroidism animal prepared as above, 500, 250, and 125 mg/kg of the extract from Lonicera caerulea L. car. Edulis fruits (BH) prepared in Example 1-1 were dissolved in sterilized distilled water, respectively, and the capacity of 5 ml/kg was orally administered forcibly once a day for 42 consecutive days, 2 weeks prior to the PTU treatment. On the other hand, LF, an experimental group, was also dissolved in sterilized distilled water, and the capacity of 250 mg/kg was orally administered for the same period in the manner as described above.\n(§7) 0.5 mg/kg of LT4 was dissolved in saline solution, and the capacity of 1 ml/kg was intraperitoneally administered once a day for 28 consecutive days since the PTU treatment day in the same manner as described above (Table 6, FIG. 5)."}, "[6]": {"tested_on": "PTU-induced hypothyroidism rat", "experiment": "Histopathological observation of thyroid, PTU-induced hypothyroidism animal model", "conditions": "PTU-induced hypothyroidism rats; 0.5 mg/kg intraperitoneally", "experimental": "as §4, §5\nas §6, with “above. […]” for “above.”"}, "[7]": {"tested_on": "PTU-induced hypothyroidism rat", "experiment": "Histopathological observation of reproductive organs, PTU-induced hypothyroidism animal model", "conditions": "PTU-induced hypothyroidism rats; 0.5 mg/kg intraperitoneally", "experimental": "as §4, §5, §6, §7"}, "[8]": {"tested_on": "PTU-induced hypothyroidism rat", "experiment": "Content of sex hormones in serum, PTU-induced hypothyroidism animal model", "conditions": "PTU-induced hypothyroidism rats; LT4 0.5 mg/kg intraperitoneally", "experimental": "as §4, §5, §6, §7"}, "[9]": {"tested_on": "PTU-induced hypothyroidism rat", "experiment": "Change in the thyroid weight, PTU-induced hypothyroidism animal model", "conditions": "PTU-induced hypothyroidism rats; 0.5 mg/kg intraperitoneally", "experimental": "as §4, §5\nas §6, with “above. […]” for “above.”"}, "[10]": {"tested_on": "PTU-induced hypothyroidism rat", "experiment": "Change in weight, PTU-induced hypothyroidism animal model", "conditions": "PTU-induced hypothyroidism rats", "experimental": "as §4, §5, §6, §7\nNext, the effects on treating hypothyroidism was confirmed by observing the weight change, thyroid weight change, content change in blood thyroid hormone (TSH, T3, and T4), and histopathological changes in the thyroid (the total thickness of thyroid in which the cells have been cut and average diameter of thyroid follicle) of the rats for each group. […]"}, "[11]": {"tested_on": "PTU-induced hypothyroidism rat", "experiment": "Thyroid hormone content in blood, PTU-induced hypothyroidism animal model", "conditions": "PTU-induced hypothyroidism rats; 0.5 mg/kg intraperitoneally", "experimental": "as §4, §5, §6, §7\nNext, the effects on treating hypothyroidism was confirmed by observing the weight change, thyroid weight change, content change in blood thyroid hormone (TSH, T3, and T4), and histopathological changes in the thyroid (the total thickness of thyroid in which the cells have been cut and average diameter of thyroid follicle) of the rats for each group."}, "[12]": {"tested_on": "PTU-induced hypothyroidism rat", "experiment": "Testicular antioxidant defense system, PTU-induced hypothyroidism animal model", "conditions": "testis, PTU-induced hypothyroidism rats; 0.5 mg/kg intraperitoneally", "experimental": "as §4, §5, §6, §7"}}, "note": "Marks after values point to notes of the source that are not given here.", "data": [{"smiles": "CCCc1cc(=O)[nH]c(=S)[nH]1", "note": "[PTU, 6-n-propyl-2-thiouracil]", "values": [{"measurement": "Absolute organ weights Thyroid gland", "setting": "[1]", "value": "8.88 ± 2.03^h mg"}, {"measurement": "Relative organ weights (% of BW) Thyroid gland", "setting": "[1]", "value": "2.71 ± 0.64^c mg/g of BW"}, {"measurement": "Thyroid glands Mean follicular epithelium thickness", "setting": "[2]", "value": "14.50 ± 2.84^gh μm/follicle"}, {"measurement": "Thyroid glands Mean follicular thickness", "setting": "[2]", "value": "71.87 ± 12.05^c μm/follicle"}, {"measurement": "Thyroid glands Total thickness", "setting": "[2]", "value": "1628.19 ± 174.84^ac μm/central region"}, {"measurement": "Serum thyroid hormone levels TSH", "setting": "[3]", "value": "1.37 ± 0.24^ac ng/ml"}, {"measurement": "Serum thyroid hormone levels Thyroxine", "setting": "[3]", "value": "71.30 ± 23.13^bc μg/ml"}, {"measurement": "Serum thyroid hormone levels Tri-iodothyronine", "setting": "[3]", "value": "0.80 ± 0.18^ac ng/ml"}, {"measurement": "Body weight gains during 15 days of PTU and herbal extracts treatment", "setting": "[4]; 10 mg/kg intraperitoneally", "value": "58.75 ± 15.04^ab"}, {"measurement": "Body weight gains during 27 days of total experiments", "setting": "[4]; 10 mg/kg intraperitoneally", "value": "113.63 ± 24.49^ab"}, {"measurement": "days after administration from which weight was considerably increased compared to LT4 control", "setting": "[4]; 10 mg/kg intraperitoneally", "value": 5, "unit": "days"}, {"measurement": "Body weight gains during 12 days of LT4 pretreatment", "setting": "[4]; 10 mg/kg intraperitoneally group, period before test substance dosing", "value": "54.50 ± 13.15^d"}]}, {"smiles": "N[C@@H](Cc1cc(I)c(Oc2cc(I)c(O)c(I)c2)c(I)c1)C(=O)O", "note": "[LT4, Levothyroxine]", "values": [{"measurement": "Absolute organ weights Epididymis", "setting": "[5]", "value": "0.342 ± 0.042^ac g"}, {"measurement": "Absolute organ weights Prostate", "setting": "[5]", "value": "0.492 ± 0.042^ef g"}, {"measurement": "Absolute organ weights Testis", "setting": "[5]", "value": "1.082 ± 0.045^eg"}, {"measurement": "Relative organ weights Epididymis", "setting": "[5]", "value": "0.086 ± 0.012^gi % of body weights"}, {"measurement": "Relative organ weights Prostate", "setting": "[5]", "value": "0.124 ± 0.013^gf % of body weights"}, {"measurement": "Relative organ weights Testis", "setting": "[5]", "value": "0.273 ± 0.021^ac % of body weights"}, {"measurement": "Thyroid gland Mean follicular diameters", "setting": "[6]", "value": "102.24 ± 12.47^ac μm/follicle"}, {"measurement": "Thyroid gland Total thickness", "setting": "[6]", "value": "1542.77 ± 137.07^bc μm/central regions"}, {"measurement": "Epididymis A/O tubule percentages", "setting": "[7]", "value": "56.00 ± 7.52^df %/mm^2"}, {"measurement": "Epididymis Mean tubular diameters", "setting": "[7]", "value": "217.98 ± 14.97^df μm/tubules of head"}, {"measurement": "Prostate Atrophic tubule percentage", "setting": "[7]", "value": "73.50 ± 10.80^ab %/mm^2"}, {"measurement": "Prostate Mean tubular epithelial thickness", "setting": "[7]", "value": "11.82 ± 2.76^df μm/tubules"}, {"measurement": "Testis Mean semniferous tubule diameters", "setting": "[7]", "value": "195.00 ± 13.29^df μm/tubules"}, {"measurement": "Testis Stage I~II semniferous tubule percentages", "setting": "[7]", "value": "15.63 ± 2.39^df %/mm^2"}, {"measurement": "Serum male reproductive hormone levels DHT", "setting": "[8]", "value": "98.00 ± 13.43^ab pg/ml"}, {"measurement": "Serum male reproductive hormone levels FSH", "setting": "[8]", "value": "21.01 ± 1.65^ab ng/ml"}, {"measurement": "Serum male reproductive hormone levels Testosterone", "setting": "[8]", "value": "1.45 ± 0.18^fi ng/ml"}, {"measurement": "Absolute organ weights Thyroid gland", "setting": "[9]", "value": "0.012 ± 0.003^c g"}, {"measurement": "Relative organ weights Thyroid gland", "setting": "[9]", "value": "0.003 ± 0.001^c % of body weights"}, {"measurement": "Body weight gains during 4 weeks of PTU treatment", "setting": "[10]; 0.5 mg/kg intraperitoneally", "value": "45.50 ± 14.55^fg"}, {"measurement": "Body weight gains during 6 weeks of total experiments", "setting": "[10]; 0.5 mg/kg intraperitoneally", "value": "173.00 ± 16.75^ab"}, {"measurement": "Body weight gains during 2 weeks of test material pretreatment", "setting": "[10]; 0.5 mg/kg intraperitoneally group, period before LT4 and PTU dosing, in g (unit assumed)", "value": "127.50 ± 13.15"}, {"measurement": "Serum thyroid hormone levels TSH", "setting": "[11]", "value": "10.74 ± 1.62^bc ng/ml"}, {"measurement": "Serum thyroid hormone levels Thyroxine", "setting": "[11]", "value": "6.75 ± 1.45^e μg/ml"}, {"measurement": "Serum thyroid hormone levels Tri-iodothyronine", "setting": "[11]", "value": "19.24 ± 3.21^a ng/ml"}, {"measurement": "Antioxidant defense system Catalase", "setting": "[12]", "value": "8.63 ± 2.13^eg U/mg protein"}, {"measurement": "Antioxidant defense system H2O2", "setting": "[12]", "value": "80.63 ± 16.27^ab nM/mg protein"}, {"measurement": "Antioxidant defense system SOD", "setting": "[12]", "value": "8.50 ± 2.00^eg U/mg protein"}, {"measurement": "Lipid peroxidation Malondialdehyde", "setting": "[12]", "value": "5.54 ± 0.91", "unit": "nM/mg protein"}]}]}
